Data reported in publication PMC5636972 (Cell Death & Disease, 2017).

Columns and labels:
[1] = system: MDA-MB-231 cells; test: MTT cell viability assay, MDA-MB-231; assay type: cell-based; details: for killing these cancer cells (in words): MDA-MB-231, MKN-45, HCT116, Colo205, Table 1; for EC50: MTT, 72 h
Text: (§1) To evaluate the potency of I-Trp in killing these cancer cell lines, we performed MTT assay to determine the cell viability of target cells. […] The cancer cells with higher expression levels of CCT-β were indeed more sensitive to I-Trp.

[2] = system: MKN-45 cells; test: MTT cell viability assay, MKN-45; assay type: cell-based
Text: as §1

[3] = system: HCT116 cells; test: MTT cell viability assay, HCT116; assay type: cell-based
Text: as §1

[4] = system: Colo205 cells; test: MTT cell viability assay, Colo205; assay type: cell-based
Text: as §1

[5] = system: MCF-10A cells; test: MTT cell viability assay, non-tumorigenic MCF-10A; assay type: cell-based; details: for EC50: MTT, 72 h, normal cells
Text: as §1

[6] = system: I-Trp-induced apoptosis; test: Reversal of I-Trp-induced apoptosis by pretreatment with inhibitors (sub-G0 flow cytometry); assay type: cell-based
Description: Figure 4 Effect of I-Trp on the levels of intracellular Ca^2+. (a) I-Trp induces intracellular Ca^2+ release in a concentration-dependent manner. Cells were pretreated with BAPTA/AM (negative control) for 1 h, with MCN-A-343 (positive control) or different concentrations of I-Trp and incubated with Fluo-4 for 40 min. After incubation, the fluorescence signal was immediately measured using a fluorescence microplate reader by excitation at 509 nm and emission at 516 nm. (b) Cells were pre-incubated with BAPTA/AM (1–20 μM) for 1 h prior to treatment with EC50 concentrations of I-Trp for 72 h. Cell apoptosis was assessed via PI-based flow cytometric analysis. Data are expressed as mean±S.D. ***P<0.001, significant difference as compared to control. ^#P<0.05, ^##P<0.01 and ^###P<0.001 significant difference as compared to I-Trp alone
Next, we used ERK1/2 inhibitor U0126,[33], [34] JNK inhibitor SP600125,[35], [36] and p38 inhibitor SB203580[37] to confirm the involvement of MAPKs in I-Trp-induced apoptosis. We pretreated the cancer cell lines with 0.5–10 μM U0126, 1–10 μM SP600125, or 1–10 μM SB203580 for 1 h and subsequently treated them with I-Trp to detect the sub-G0 cell accumulation by flow cytometry.
(§2) Cells (3 × 10^5) were fixed in 70% ice-cold EtOH for 30 min at RT. Cells were washed with PBS once and then incubated with propidium iodide (PI) staining solution (PBS containing 0.1 % BSA, 0.1% RNase A, and […] PI) for 30 min at RT in the dark. After the incubation, the cells were analyzed by flow cytometry to assess their DNA content.

[7] = system: CCT-β : β-tubulin complex; test: co-IP with CCT-β antibody, immunoblot for β-tubulin; assay type: cell-based; details: 5 or 10 μM, 6 h; MDA-MB-231, MKN-45, HCT116, Colo205 lysates
Description: With GADPH as a protein-loading control, we also confirmed that the input of β-tubulin and CCT-β in the experiments was equal with or without treatment. […] After 24–48 h of I-Trp treatment, cells underwent apoptosis to trigger proteasome activity for cellular protein degradation as reported previously.[14]
(a) Using CCT-β antibody to co-IP the complex, and then detecting the quantity of trapped β-tubulin with western blotting using β-tubulin antibody. […] The cancer cells were treated with I-Trp for the designated time periods. Cell lysates were examined using the proteasome activity assay. (c) The changed expression levels of ER stress protein markers upon I-Trp treatment
The cell lysates (100 μg) were boiled for 5 min in SDS sample buffer (62.5 mM Tris-HCl pH 6.7, 1.25% SDS, 12.5% glycerol, and 2.5% β-mercaptoethanol), and the proteins were separated via SDS-PAGE. For western blotting, proteins were transferred onto a PVDF membrane (Millipore, MA, USA) and incubated with different antibody agents. After incubation with horseradish peroxidase (HRP)-conjugated secondary antibody, immuno-reactive protein bands were visualized using the enhanced chemiluminescence (ECL) system (Amersham Bioscience, Tokyo, Japan).

[8] = system: CCT-β and β-tubulin mRNA; test: Real time qPCR for CCT-β and β-tubulin mRNA; assay type: cell-based; details: HCT116, MKN-45, MDA-MB-231, Colo205
Text: Mean values ± S.D. from three independent samples are shown. The RT-PCR experiments reveal that the mRNA levels of CCT-β and β-tubulin were not changed after I-Trp treatment in the tested cancer cells.

[9] = system: proteasome activity; test: Proteasome activity assay in cell lysates; assay type: cell-based
Description: After being treated with I-Trp for designated time periods, cells were collected and resuspended in cell lysis buffer (BioVision). Aliquots of cell lysates (100 μg) were incubated with 1 μM of fluorescent proteasome substrate (BioVision) for 30 min at 37 °C. The fluorescent intensity was read using a fluorimeter with an exciting wavelength at 355 nm and emission wavelength at […] and presented as relative proteasome activity.

[10] = system: intracellular Ca^2+; test: Fluo-4 intracellular Ca2+ assay; assay type: cell-based; details: the four cancer cell lines, Fluo-4, 40 min
Description: We used a Fluo-4 direct calcium assay kit from Invitrogen (catalog item F10471) to measure the intracellular calcium response to I-Trp in target cancer cell lines. Cancer cell lines were cultured in 96-well plates with media containing 10% FBS. After reaching confluence, cancer cells were treated with MCN-A-343 (positive control), BATPA (negative control), or I-Trp and incubated with Fluo-4 direct calcium reagent loading solution for 40 min. After incubation, the fluorescence signal was immediately measured using a fluorescence microplate reader at excitation and emission of 509 and 516 nm, respectively.

[11] = system: caspases; test: Caspase activity assay (fluorescent substrates); assay type: cell-based; details: EC50 concentrations, 72 h, the four cancer cell lines
Description: The caspase activity assay was performed according to the manufacturer’s guidelines (BioVision). Briefly, cell lysates (200 μg) were diluted in 50 μl of cell lysis buffer (supplied by the kit). Equal volumes of the 2 × reaction buffer (supplied by the kit) containing 10 mM DTT were added to the cell lysates. Subsequently, 50 μM of fluorescent dye-conjugated caspase substrate was individually added to the designated caspase activity assay. After a 2-h incubation, free fluorescent dyes in the solution were read in a fluorimeter equipped with a 385-nm excitation filter and 510-nm emission filter.

[12] = system: MDA-MB-231 cells; test: PI-based flow cytometric sub-G0 apoptosis assessment; assay type: cell-based; details: MDA-MB-231 with CCT-β shRNA clones, 10 μM, 72 h
Description: as §2

[13] = system: MDA-MB-231, MKN-45, HCT116, and Colo205 cells; test: as above; assay type: cell-based; details: 72 h, different concentrations, the four cancer cell lines
Description: as §2

[14] = system: MDA-MB-231, MKN-45, HCT116, and Colo205 cells; test: Long-term colony formation assay; assay type: cell-based; details: 0.31 to 2.5 μM, 7 days
Text: Next, we investigated the long-term effect of I-Trp on proliferation of the target cells using the colony formation assay.

[15] = system: microtubules; set-up: method as in PMID 19690144; details: cited from earlier work
[16] = system: β-tubulin; set-up: method as in PMID 19690144; details: cited from earlier work

## COC(=O)C(Cc1c[nH]c2ccccc12)NC(=O)CBr (stereo not drawn) [Compound 1b]
[1]
  killing these cancer cells (in words): almost equipotent as I-Trp (1a)
  EC50: 3.75 µM
[2]; 72 h
  EC50: 2.5 µM
[3]; 72 h
  EC50: 1.1 µM
[4]; 72 h
  EC50: 1.6 µM
[5]
  EC50: > 20 µM

## COC(=O)C(Cc1c[nH]c2ccccc12)NC(=O)CC(F)(F)F (stereo not drawn) [Compound 1f]
[1]
  EC50: > 20 µM
[2]; 72 h
  EC50: > 20 µM
[3]; 72 h
  EC50: > 20 µM
[4]; 72 h
  EC50: > 20 µM
[5]
  EC50: > 20 µM

## COC(=O)C(Cc1c[nH]c2ccccc12)NC(=O)C[N+](=O)[O-] (stereo not drawn) [Compound 1e]
[1]
  EC50: > 20 µM
[2]; 72 h
  EC50: 14.1 µM
[3]; 72 h
  EC50: 20.9 µM
[4]; 72 h
  EC50: 15.9 µM
[5]
  EC50: > 20 µM

## COc1cccc2c1C(=O)c1c(O)c3c(c(O)c1C2=O)C[C@@](O)(C(=O)CO)C[C@@H]3O[C@H]1C[C@H](N)[C@H](O)[C@H](C)O1 [Doxorubicin, reference compound]
[1]; Homo sapiens, MDA-MB-231
  EC50: 0.46 µM
[2]; Homo sapiens, MKN-45, 72 h
  EC50: 0.24 µM
[3]; Homo sapiens, HCT-116, 72 h
  EC50: 0.26 µM
[4]; Homo sapiens, COLO 205, 72 h
  EC50: 0.5 µM
[5]; Homo sapiens, MCF-10A
  EC50: 3.8 µM

## C[S+]([O-])c1ccc(-c2nc(-c3ccncc3)c(-c3ccc(F)cc3)[nH]2)cc1 (stereo not drawn) [SB203580]
[6]; 1–10 μM pretreatment 1 h, the cancer cell lines
  reversal of I-Trp-induced apoptosis: reduced the percentage of I-Trp-induced apoptotic cells

## COC(=O)C(Cc1c[nH]c2ccccc12)NC(=O)CCl (stereo not drawn) [Compound 1c]
[1]
  killing these cancer cells (in words): mostly inactive
  EC50: 19.5 µM
[2]; 72 h
  EC50: > 20 µM
[3]; 72 h
  EC50: > 20 µM
[4]; 72 h
  EC50: > 20 µM
[5]
  EC50: > 20 µM

## COC(=O)C1Cc2c([nH]c3ccccc23)C(c2ccccc2)N1C(=O)CI (stereo not drawn) [Compound 4]
[1]; Homo sapiens, MDA-MB-231
  EC50: 0.59 µM
[1]; cancer cell lines of Table 1
  potency relative to doxorubicin: slightly less (~twofold) potent than doxorubicin
[2]; Homo sapiens, MKN-45, 72 h
  EC50: 1.6 µM
[3]; Homo sapiens, HCT-116, 72 h
  EC50: 0.54 µM
[4]; Homo sapiens, COLO 205, 72 h
  EC50: 0.99 µM
[5]; Homo sapiens, MCF-10A
  EC50: ~20 µM
[5]; MCF-10A
  toxicity relative to doxorubicin on MCF-10A: significantly less (~fivefold) toxic compared to doxorubicin

## COC(=O)C(Cc1c[nH]c2ccccc12)NC(=O)C(Cl)Cl (stereo not drawn) [Compound 1d]
[1]
  EC50: > 20 µM
[2]; 72 h
  EC50: > 20 µM
[3]; 72 h
  EC50: > 20 µM
[4]; 72 h
  EC50: > 20 µM
[5]
  EC50: > 20 µM

## COC(=O)C(Cc1c[nH]c2ccccc12)NC(=O)C(F)(F)F (stereo not drawn) [Compound 1g]
[1]
  EC50: > 20 µM
[2]; 72 h
  EC50: > 20 µM
[3]; 72 h
  EC50: > 20 µM
[4]; 72 h
  EC50: > 20 µM
[5]
  EC50: > 20 µM

## COC(=O)C1Cc2c([nH]c3ccccc23)C(c2ccccc2)N1C(=O)CCl (stereo not drawn) [Compound 3]
[1]; Homo sapiens, MDA-MB-231
  EC50: 2.7 µM
[1]
  killing these cancer cells (in words): effectively killed cancer cells
[2]; Homo sapiens, MKN-45, 72 h
  EC50: 4.7 µM
[3]; Homo sapiens, HCT-116, 72 h
  EC50: 3.3 µM
[4]; Homo sapiens, COLO 205, 72 h
  EC50: 8.1 µM
[5]; Homo sapiens, MCF-10A
  EC50: > 20 µM

## COC(=O)C(Cc1c[nH]c2ccccc12)NC(=O)CC#N (stereo not drawn) [Compound 1h]
[1]
  EC50: > 20 µM
[2]; 72 h
  EC50: > 20 µM
[3]; 72 h
  EC50: > 20 µM
[4]; 72 h
  EC50: > 20 µM
[5]
  EC50: > 20 µM

## COC(=O)[C@@H](Cc1c[nH]c2ccccc12)NC(=O)CI [I-Trp]
[1]
  EC50: 2.5 µM
[2]; 72 h
  EC50: 1.27 µM
[3]; 72 h
  EC50: 0.88 µM
[4]; 72 h
  EC50: 0.9 µM
[5]; MCF-10A
  toxicity to MCF-10A (in words): non-toxic
[5]
  EC50: > 20 µM
[7]
  disruption of the CCT-β : β-tubulin complex (trapped β-tubulin): disrupted the CCT-β : β-tubulin complex
[8]
  mRNA levels of CCT-β and β-tubulin: not changed
[9]; MDA-MB-231 cells
  proteasome activities: less apparent
[9]; MKN-45, HCT116, and Colo205 cells
  proteasome activities: elevated in an I-Trp dose-dependent manner
[10]
  intracellular Ca^2+ mobilization: induced the intracellular Ca^2+ mobilization in a dose-dependent manner
[11]
  activities of caspases-2 to -9: enhanced
[12]
  cell death (sub-G0) after knockdown of CCT-β: significantly (P<0.001) reduced cell death from I-Trp exposure
[13]
  sub-G0 cell accumulation: dose-dependent sub-G0 cell accumulation
[14]
  colony formation: formed more diffuse or smaller colonies
[15]
  effect on polymerization/depolymerization of microtubules: does not affect the polymerization/depolymerization of microtubules
[16]
  covalent modification of β-tubulin: alkylate Cys^354 of β-tubulin

## Oc1c2ccccc2c2c3c(cccc13)N=N2 [SP600125]
[6]; MDA-MB-231 and HCT116 cells, 1–10 μM pretreatment 1 h
  reversal of I-Trp-induced apoptosis: could not reverse I-Trp-induced apoptosis

## N#CC(=C(/N)Sc1ccccc1N)/C(C#N)=C(/N)Sc1ccccc1N [Compound U0126]
[6]; MKN-45 cells, 0.5–10 μM pretreatment 1 h
  reversal of I-Trp-induced apoptosis: could not reverse the I-Trp-induced apoptosis
